Measured values taken from patent US20240377399A1, “COMPOSITIONS AND METHODS FOR MODULATING HYDROXYLATION OF ACC2 BY PHD3” (President and Fellows of Harvard College, priority 2015, published 2024).
“Also recorded” adds a separate entry of the source.

What was measured:
ACC2 = molecular target: T1, ACC2 (Homo sapiens, UniProt O00763); assay: ACC activity assay in 293T cell lysates; assay type: biochemical; settings: lysates overexpressing ACC2; citrate 2 mM
T1 construct: expressed in transfected cells; host or cells: 293T cells, whole-cell lysate (50 ug protein per reaction)
T1 sequence (O00763 whole entry): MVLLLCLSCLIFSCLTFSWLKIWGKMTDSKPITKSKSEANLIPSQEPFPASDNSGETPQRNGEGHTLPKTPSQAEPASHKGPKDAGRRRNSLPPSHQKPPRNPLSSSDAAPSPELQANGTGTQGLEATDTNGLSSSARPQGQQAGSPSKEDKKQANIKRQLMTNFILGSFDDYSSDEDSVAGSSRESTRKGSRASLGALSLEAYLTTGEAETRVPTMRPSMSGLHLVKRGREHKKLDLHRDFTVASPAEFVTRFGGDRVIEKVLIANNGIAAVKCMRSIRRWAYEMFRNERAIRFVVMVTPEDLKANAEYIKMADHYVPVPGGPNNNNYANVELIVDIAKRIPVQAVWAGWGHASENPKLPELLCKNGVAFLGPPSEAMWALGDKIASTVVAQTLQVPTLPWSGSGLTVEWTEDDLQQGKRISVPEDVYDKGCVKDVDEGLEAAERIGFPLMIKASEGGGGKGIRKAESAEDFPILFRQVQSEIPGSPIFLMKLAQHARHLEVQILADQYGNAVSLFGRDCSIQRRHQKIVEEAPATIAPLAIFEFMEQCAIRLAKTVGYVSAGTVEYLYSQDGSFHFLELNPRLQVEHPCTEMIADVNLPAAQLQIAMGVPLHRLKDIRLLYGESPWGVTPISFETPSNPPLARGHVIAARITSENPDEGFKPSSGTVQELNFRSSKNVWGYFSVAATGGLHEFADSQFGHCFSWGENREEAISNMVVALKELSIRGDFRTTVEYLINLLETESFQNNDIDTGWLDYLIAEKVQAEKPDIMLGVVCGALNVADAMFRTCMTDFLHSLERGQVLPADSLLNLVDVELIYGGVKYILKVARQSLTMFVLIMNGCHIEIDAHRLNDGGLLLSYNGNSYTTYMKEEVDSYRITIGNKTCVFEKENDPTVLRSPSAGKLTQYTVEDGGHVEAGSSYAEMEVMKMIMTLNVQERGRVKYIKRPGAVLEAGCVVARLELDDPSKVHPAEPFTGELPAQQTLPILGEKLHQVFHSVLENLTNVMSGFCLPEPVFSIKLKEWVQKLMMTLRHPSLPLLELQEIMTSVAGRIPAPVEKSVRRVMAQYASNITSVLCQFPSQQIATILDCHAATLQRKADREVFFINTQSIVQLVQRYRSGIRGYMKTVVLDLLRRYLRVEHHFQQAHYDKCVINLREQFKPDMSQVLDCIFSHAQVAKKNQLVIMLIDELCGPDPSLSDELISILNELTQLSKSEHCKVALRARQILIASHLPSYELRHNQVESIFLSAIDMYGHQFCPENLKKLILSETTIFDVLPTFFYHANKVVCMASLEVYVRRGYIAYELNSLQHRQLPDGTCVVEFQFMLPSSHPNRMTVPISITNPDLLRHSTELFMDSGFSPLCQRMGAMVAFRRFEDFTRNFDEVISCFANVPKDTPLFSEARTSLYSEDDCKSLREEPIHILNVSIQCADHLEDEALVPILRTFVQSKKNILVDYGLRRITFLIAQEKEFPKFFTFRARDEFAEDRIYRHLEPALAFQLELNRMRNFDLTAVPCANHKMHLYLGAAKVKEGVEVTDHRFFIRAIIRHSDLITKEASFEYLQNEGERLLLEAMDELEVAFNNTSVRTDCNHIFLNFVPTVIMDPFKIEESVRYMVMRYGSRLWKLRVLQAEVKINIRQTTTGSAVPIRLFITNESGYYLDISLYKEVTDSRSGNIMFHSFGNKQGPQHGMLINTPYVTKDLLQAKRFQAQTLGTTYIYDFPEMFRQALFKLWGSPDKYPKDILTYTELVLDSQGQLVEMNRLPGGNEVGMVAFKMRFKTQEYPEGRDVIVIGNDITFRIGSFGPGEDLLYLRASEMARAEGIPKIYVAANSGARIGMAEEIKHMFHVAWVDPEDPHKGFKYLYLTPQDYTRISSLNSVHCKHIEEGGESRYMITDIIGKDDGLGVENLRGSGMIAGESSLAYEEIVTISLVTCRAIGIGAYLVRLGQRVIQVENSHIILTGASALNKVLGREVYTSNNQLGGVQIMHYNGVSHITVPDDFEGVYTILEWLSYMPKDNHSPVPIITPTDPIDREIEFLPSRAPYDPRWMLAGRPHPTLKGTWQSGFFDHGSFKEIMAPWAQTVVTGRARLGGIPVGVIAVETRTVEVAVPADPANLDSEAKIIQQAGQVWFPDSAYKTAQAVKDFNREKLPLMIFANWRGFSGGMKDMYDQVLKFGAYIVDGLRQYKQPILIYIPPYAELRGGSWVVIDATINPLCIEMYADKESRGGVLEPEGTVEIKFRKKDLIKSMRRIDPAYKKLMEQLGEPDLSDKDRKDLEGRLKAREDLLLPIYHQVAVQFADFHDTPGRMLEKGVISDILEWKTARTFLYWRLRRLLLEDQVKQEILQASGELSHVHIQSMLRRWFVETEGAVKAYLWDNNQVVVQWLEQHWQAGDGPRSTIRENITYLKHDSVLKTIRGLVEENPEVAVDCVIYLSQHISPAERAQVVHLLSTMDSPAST
Method: ACC activity assay. Reactions were performed as previously described, with the exception of using 16.7 mM MgCl2 instead. 50 μg protein lysate was used for each reaction. Following addition of 1 N HCl to quench reactions and convert remaining [^14C]bicarbonate (American Radiolabeled Chemicals) to CO2, reactions were evaporated 2 hours at 600 and 15 min at 850 in a thermo shaker. ACC activity was calculated as incorporation of [^14C]bicarbonate into [^14C]malonyl CoA (the acid and heat stable product) as measured by scintillation counting.

recombinant PHD3 = recombinant PHD3 (Homo sapiens, UniProt Q9H6Z9); assay: In vitro hydroxylation assay with ACC2 peptides; assay type: biochemical; settings: 12.5 nmol synthetic peptide; radioactivity-based, [14C]CO2 release
recombinant PHD3, sequence (Q9H6Z9 whole entry): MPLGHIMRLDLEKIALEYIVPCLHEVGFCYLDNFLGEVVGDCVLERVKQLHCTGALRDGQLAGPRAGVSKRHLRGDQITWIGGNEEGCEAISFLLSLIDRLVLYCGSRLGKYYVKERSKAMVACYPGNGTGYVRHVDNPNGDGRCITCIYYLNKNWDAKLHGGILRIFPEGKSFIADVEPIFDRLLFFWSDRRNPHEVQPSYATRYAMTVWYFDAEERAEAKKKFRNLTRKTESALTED
Method: In vitro hydroxylation assay. The in vitro hydroxylation assay was modified from a previously described assay based on the fact that hydroxylation by PHDs results in decarboxylation of […]-ketoglutarate to form carbon dioxide. Briefly, […] reactions were performed in glass vials sealed with rubber stoppers and parafilm wax. Reaction mixtures containing 12.5 nmol synthetic peptide (Peptide 2.0), 50 mM Tris/HCl (pH 7.8), 2 mg/ml BSA, 4200 U/ml catalase, 0.1 mM DTT, 2 mM ascorbate, 500 μM FeSO4·7H2O, 0.02 μmol [1-^14C][…]-ketoglutarate (Perkin Elmer) and 1.2 μg recombinant PHD3 were incubated at 370 for 30 min. Reactions were stopped by injection of 0.25 ml of 1 M KH2PO4 (pH 5) into vials. Vials were agitated on slow speed for 30 min at room temperature to allow capture of [^14C]CO2 onto solubilized Whatman paper positioned at the top of the vials. CPM were measured by scintillation counts on filter paper.

K562 leukemia cells = assay: Leukemia cell viability by PI staining after 96 hr drug treatment; assay type: cell-based, human; settings: high-PHD3 CML line, 96 hr treatment, ranolazine 0-500 μM or etomoxir 0-200 μM
Method: (§1) Drug treatment and PI staining. Cells were treated 96 hr with a range of doses of etomoxir (Cayman Chemical) or ranolazine dihydrochloride (VWR/Selleck Chemicals) or vehicle. Fresh etomoxir was spiked in at 24, 48 and 72 hr. Fresh ranolazine was spiked in at 48 hr. Dosing schedules were determined by identifying the minimum number of times drug must be re-added to observe an effect on cell viability. Cell viability at 96 hr was determined by staining cells with 1 µg/ml propidium iodide (Sigma) in PBS and flow cytometry on the BD LSR-II analyzer.

low-PHD3 leukemia cells = assay: as above; assay type: cell-based, human; settings: 96 hr treatment, ranolazine 0-500 μM or etomoxir 0-200 μM
Method: as §1

MEGO1 = assay: as above; assay type: cell-based, human; settings: high-PHD3 CML cell line, high dose of ranolazine, compared to low-PHD3 AML cells
Method: as §1

MOLM14 cells [1] = assay: Colony formation assay (soft agar); assay type: cell-based, human; settings: for colony formation (growth): PHD3-overexpressing MOLM14, metformin 1 mM, CFU counted 8 days after plating
Text: FIG. 12B, Growth curves of MOLM14 and THP1 cells stably overexpressing vector or PHD3 (n=3). FIG. 12C, ATP CellTiter-Glo analysis in MOLM14 and THP1 cells stably overexpressing vector or PHD3 (n=4). FIG. 12D, Colony formation assay with MOLM14 and THP1 cells stably overexpressing vector or PHD3. Colony forming units (CFU) were counted 8 days after plating MOLM14 and 20 days after plating THP1 (n=3). FIG. 12E, Representative images from colony formation assays with MOLM14 or THP1 cells stably overexpressing vector or PHD3. MOLM14 colonies were imaged on day 8 and THP1 colonies imaged on day 20 using an inverted microscope (Nikon Eclipse Ti-U) at 200× magnification and SPOT camera software 5.0. FIG. 12F, Immunoblot showing HA-PHD3 overexpression in K562 cells. FIG. 12G and FIG. 12H, Colony formation assay and representative images from K562 cells stably expressing PHD3 or vector. CFU were counted and imaged 10 days after plating (n=3). […] Cells were treated with S2E (50 μM, Sigma), metformin (1 mM, Sigma) or vehicle following viral infection with PHD3 and throughout the duration of the experiment. Infected cells were selected with puromycin. Following FACS to collect PI-negative cells, 8000 cells were plated per well of a 96-well plate, and cell number at 72 h was determined by cell counting (n=3). […] Colony formation was assessed in MOLM14 cells stably overexpressing vector or PHD3 in the presence or absence of metformin (Met, 1 mM). CFU were counted 8 days after plating (n=2). FIG. 12K, qPCR analysis of PHD3 gene expression in primary human CD34+ cells from bone marrow filtrate of a healthy donor or AML patient samples (690a, 2093 and 2266). PPIA was used as a reference gene. FIG. 12L, ATP CellTiter-Glo analysis of cell viability in AML patient samples following stable overexpression of empty vector or PHD3 (n=4).

MOLM14 cells [2] = assay: Cell growth (cell counting at 72 h) following PHD3 overexpression; assay type: cell-based, human; settings: PHD3-overexpressing MOLM14; S2E 50 μM or metformin 1 mM
Text: FIG. 12B, Growth curves of MOLM14 and THP1 cells stably overexpressing vector or PHD3 (n=3). FIG. 12C, ATP CellTiter-Glo analysis in MOLM14 and THP1 cells stably overexpressing vector or PHD3 (n=4). FIG. 12D, Colony formation assay with MOLM14 and THP1 cells stably overexpressing vector or PHD3. Colony forming units (CFU) were counted 8 days after plating MOLM14 and 20 days after plating THP1 (n=3). FIG. 12E, Representative images from colony formation assays with MOLM14 or THP1 cells stably overexpressing vector or PHD3. MOLM14 colonies were imaged on day 8 and THP1 colonies imaged on day 20 using an inverted microscope (Nikon Eclipse Ti-U) at 200× magnification and SPOT camera software 5.0. FIG. 12F, Immunoblot showing HA-PHD3 overexpression in K562 cells. FIG. 12G and FIG. 12H, Colony formation assay and representative images from K562 cells stably expressing PHD3 or vector. CFU were counted and imaged 10 days after plating (n=3). […] Following FACS to collect PI-negative cells, 8000 cells were plated per well of a 96-well plate, and cell number at 72 h was determined by cell counting (n=3). […] Colony formation was assessed in MOLM14 cells stably overexpressing vector or PHD3 in the presence or absence of metformin (Met, 1 mM). CFU were counted 8 days after plating (n=2). […]

MOLM14 cells [3] = assay: Palmitate oxidation (FAO assay); assay type: cell-based, human; settings: S2E 50 μM for 3 days; 3 h incubation with radiolabeled palmitate
Method: FIG. 15 includes 10 panels, FIGS. 15A-J, showing PHD3 modulation in leukemia cell lines. FIG. 15A, PHD3 expression in MOLM14 and THP1 cells following stable overexpression of vector or PHD3 (n=3). FIG. 15B, Palmitate oxidation in HepG2 cells treated with etomoxir during the 2 h FAO assay (100 μM, n=3). FIG. 15C and FIG. 15D, PHD3 expression and growth curves in K562 cells following stable overexpression of PHD3 or vector (n=3). FIG. 15E, Growth curves of K562 cells stably expressing shRNA against PHD3 or control (n=3). FIG. 15F, Colony formation assay with K562 cells stably expressing shRNA against PHD3 or non-silencing control. Colony forming units (CFU) were counted 10 days after plating (n=2). FIG. 15G, Representative images from colony formation assays with K562 cells stably expressing shRNA against PHD3 or non-silencing control. Colonies were imaged on day 10 using an inverted microscope (Nikon Eclipse Ti-U) at 200× magnification and SPOT camera software 5.0. […] MOLM14 cells were incubated with S2E (50 μM) or vehicle for 3 days. FAO was measured following 3 h incubation with radiolabeled palmitate in the presence of S2E or vehicle. FIG. 151, PHD3 expression in MOLM14 cells following stable overexpression of vector or PHD3 (n=3). […]

293T cells = assay: Palmitate oxidation (FAO assay); assay type: cell-based, human; settings: low glucose, serum-free medium supplemented 5 mM for 6 h; PHD3-dependent
Method: FIG. 10C is a photograph of an immunoblot showing 293T cells stably expressing shRNA against PHD3 or non-targeting control were incubated 12 h in high or low nutrient media prior to analyzing ACC hydroxylation by IP and immunoblot. FIG. 10D is a photograph of an immunoblot showing ACC hydroxylation dynamically responds to cellular nutrient cues. WT immortalized MEFs were incubated in high (4.5 g/L glucose DMEM with serum) or low (1 g/L glucose DMEM without serum) nutrient medium for 6 h, or in low nutrient medium for 6 h followed by adding back high nutrient medium for 5 or 10 min. ACC was immunoprecipitated in lysis buffer containing the PHD inhibitor DMOG (1 mM) to minimize further hydroxylation in the lysis buffer. Hydroxylation was detected by immunoblot. FIG. 10E is a bar graph showing the impact of PHD3 knockdown on the ability of immortalized MEFs to modulate palmitate oxidation levels in response to low or high nutrient medium (n=3). […] FIG. 10G is a bar graph showing short, medium and long chain acylcarnitine levels as measured by metabolomics analysis of 293T cells grown in high nutrient medium following stable knockdown with shRNA against PHD3 or control. […]

HepG2 cells = assay: Palmitate oxidation (FAO assay); assay type: cell-based, human; settings: etomoxir 100 μM during the 2 h FAO assay; figure printed for PHD3 overexpression, etomoxir stated to achieve a similar level
Method: Fatty acid oxidation. For FAO assays, cells in 12 well-plates were pre-incubated with 100 µM palmitate or hexanoate and 1 mM carnitine for 4 hr in serum-free low glucose media, unless otherwise noted. Cells were then changed to 600 l media containing 1 μCi [9,10(n)-^3H]palmitic acid (GE Healthcare) or 1.8 μCi n-[5,6-^3H]hexanoic acid (American Radiolabeled Chemicals) and 1 mM carnitine for 2 hr. The medium was collected and eluted in columns packed with DOWEX 1X2-400 ion exchange resin (Sigma) to analyze the released ^3H20, formed during oxidation of [3H]palmitate. FAO in complete media indicates media including serum was used for pre-incubation and FAO analysis. Basal FAO indicates cells were not pre-incubated with fatty acids prior to FAO analysis. For all FAO experiments, counts per minute (CPM) were normalized to protein content in cell lysates.

KU812 = assay: Leukemia cell viability by PI staining after 96 hr drug treatment; assay type: cell-based, human; settings: low-PHD3 CML cell line; 96 hr treatment with etomoxir
Method: as §1

Compound: O=C(O)CC(O)(CC(=O)O)C(=O)O [citrate]
- ACC activity (ACC2): activated

Compound: ARLELDDPSKVHPAE
- hydroxylation by recombinant PHD3 (recombinant PHD3): not

Compound: COc1ccccc1OCC(O)CN1CCN(CC(=O)Nc2c(C)cccc2C)CC1 (centres unmarked) [ranolazine]
- cell viability (K562 leukemia cells): viability was largely maintained
- cell viability (low-PHD3 leukemia cells): drastically reduced cell viability
- sensitivity (viability) (MEGO1): less sensitive

Compound: CN(C)C(=N)N=C(N)N [metformin]
- colony formation (growth) (MOLM14 cells [1]): improved growth; also recorded: partially rescues
- colony formation (growth) (MOLM14 cells [1]; listed as Metformin): partially blocks the growth inhibitory effects
- cell growth in soft agar (MOLM14 cells [1]; metformin on its own, 1 mM): impaired cell growth
- cell growth at 72 h (MOLM14 cells [2]): trend toward rescued growth

Compound: CC(C)(C)c1ccc(N2C[C@@H](COc3ccc(C(=O)O)cc3)CC2=O)cc1 [S2E]
- palmitate oxidation (FAO) (MOLM14 cells [3]): increases palmitate oxidation; also recorded: amplified FAO
- cell growth at 72 h (MOLM14 cells [2]): restores cell growth; also recorded: rescued Molm14 cell growth

Compound: COC(=O)CCC(=O)C(=O)OC [dimethyl ketoglutarate]
- palmitate oxidation (293T cells): repressed palmitate oxidation

Compound: CCOC(=O)[C@@]1(CCCCCCOc2ccc(Cl)cc2)CO1 [etomoxir]
- repression of FAO (palmitate oxidation) (HepG2 cells): over 50%
- sensitivity (viability) (KU812): sensitive
- cell viability (low-PHD3 leukemia cells): substantial cell death

Compound: AGQVWFPDSAYKTAQ [peptide containing P2131]
- hydroxylation by recombinant PHD3 (recombinant PHD3): not

Compound: ERIGFPLMIKASEGGGGK [ACC2 peptide containing P450]
- hydroxylation by recombinant PHD3 (recombinant PHD3): shown to hydroxylate
